These results are taken from patent US12398154B2, “Azaquinazoline pan-KRas inhibitors” (Mirati Therapeutics, Inc., priority 2020, dated 2025).

As usually defined, the IC50 is the midpoint of a concentration-inhibition curve.

One test has as its target T1, KRas Q61H (Homo sapiens, UniProt P01116, Q61H).
T1 construct: Biotinylated KRas (corresponding to amino acids 1-169, produced at Accelegan Inc.); biotin (biotinylated); purchased Accelegan Inc
Description: KRas binding assay (TR-FRET displacement). Background: Time-resolved FRET reads energy transfer from a long-lived donor to a nearby acceptor.

The next test concerns the target KRas G12S (Homo sapiens, UniProt P01116, G12S). Description: biochemical.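 Further: TR-FRET displacement binding to KRas, read after one hour incubation at room temperature, IC50 from four-parameter fit of percent of control.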
In a further test the target is KRas G12R (Homo sapiens, UniProt P01116, G12R). Description: biochemical.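 Further: TR-FRET displacement assay of compound binding to KRas, read after one hour at room temperature, potency from a four-parameter fit of percent-of-control values.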
Chain of KRas G12R (P01116 1-169 isoform P01116-2 G12R): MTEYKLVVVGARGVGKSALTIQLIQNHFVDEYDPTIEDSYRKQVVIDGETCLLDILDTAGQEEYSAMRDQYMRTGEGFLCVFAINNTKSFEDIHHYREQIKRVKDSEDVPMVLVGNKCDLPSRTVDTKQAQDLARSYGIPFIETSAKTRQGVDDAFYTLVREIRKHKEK
The target of a further test is KRas G12V (Homo sapiens, UniProt P01116, G12V). Nature of the test: biochemical.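 Further: KRas binding measured by TR-FRET displacement at room temperature, IC50 fitted from percent of control values.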
Chain of KRas G12V (P01116 1-169 isoform P01116-2 G12V): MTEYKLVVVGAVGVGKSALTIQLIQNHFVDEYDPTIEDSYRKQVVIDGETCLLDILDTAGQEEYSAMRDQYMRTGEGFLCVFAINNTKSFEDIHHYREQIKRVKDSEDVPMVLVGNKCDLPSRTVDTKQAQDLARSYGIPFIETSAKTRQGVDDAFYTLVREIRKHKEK
For a further test, the target named is KRas WT (Homo sapiens, UniProt P01116). Description: biochemical.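 Further: binding to KRas read as TR-FRET displacement after a one-hour room-temperature incubation, IC50 derived from percent-of-control values.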
Chain of KRas WT (P01116 1-169 isoform P01116-2): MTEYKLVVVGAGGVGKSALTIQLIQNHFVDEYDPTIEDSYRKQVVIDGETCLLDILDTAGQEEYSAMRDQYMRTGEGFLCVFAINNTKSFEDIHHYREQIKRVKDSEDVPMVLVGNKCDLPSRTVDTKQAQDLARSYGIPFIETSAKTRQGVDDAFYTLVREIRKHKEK
A further test deals with T2, KRas G13D (Homo sapiens, UniProt P01116, G13D).
T2 construct: Biotinylated KRas (corresponding to amino acids 1-169, produced at Accelegan Inc.); biotin (biotinylated); purchased Accelegan Inc
T2 sequence (P01116 1-169 isoform P01116-2 G13D): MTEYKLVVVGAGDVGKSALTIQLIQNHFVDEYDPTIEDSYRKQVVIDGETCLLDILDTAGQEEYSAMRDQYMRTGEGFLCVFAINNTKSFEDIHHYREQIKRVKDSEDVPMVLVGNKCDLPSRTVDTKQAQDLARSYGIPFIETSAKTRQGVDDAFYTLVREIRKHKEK
Description: KRas binding assay (TR-FRET displacement).

A further test concerns the target KRas G12D (Homo sapiens, UniProt P01116, G12D). Description: biochemical.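 Further: TR-FRET displacement binding assay on KRas, read after a one-hour incubation at room temperature, IC50 fitted from percent-of-control values.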
The next test addresses KRas G12C (Homo sapiens, UniProt P01116, G12C). Nature of the test: biochemical.
A further test addresses KRas G12A (Homo sapiens, UniProt P01116, G12A). Nature of the test: biochemical.

T1 sequence (P01116 1-169 isoform P01116-2 Q61H): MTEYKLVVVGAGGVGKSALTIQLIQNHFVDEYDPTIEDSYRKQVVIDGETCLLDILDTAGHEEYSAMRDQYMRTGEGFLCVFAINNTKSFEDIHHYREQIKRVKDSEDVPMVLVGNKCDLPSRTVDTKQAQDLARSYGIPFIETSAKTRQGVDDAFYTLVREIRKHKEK
Chain of KRas G12S (P01116 1-169 isoform P01116-2 G12S): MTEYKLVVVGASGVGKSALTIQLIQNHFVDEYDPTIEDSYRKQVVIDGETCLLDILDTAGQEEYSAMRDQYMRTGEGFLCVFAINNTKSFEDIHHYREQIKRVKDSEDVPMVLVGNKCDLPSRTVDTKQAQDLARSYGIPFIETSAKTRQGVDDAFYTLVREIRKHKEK
Chain of KRas G12D (P01116 1-169 isoform P01116-2 G12D): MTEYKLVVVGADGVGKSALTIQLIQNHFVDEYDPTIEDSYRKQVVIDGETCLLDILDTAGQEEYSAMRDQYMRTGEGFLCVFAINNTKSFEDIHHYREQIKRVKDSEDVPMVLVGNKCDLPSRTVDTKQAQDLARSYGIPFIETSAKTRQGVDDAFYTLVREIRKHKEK
Chain of KRas G12A (P01116 1-169 isoform P01116-2 G12A): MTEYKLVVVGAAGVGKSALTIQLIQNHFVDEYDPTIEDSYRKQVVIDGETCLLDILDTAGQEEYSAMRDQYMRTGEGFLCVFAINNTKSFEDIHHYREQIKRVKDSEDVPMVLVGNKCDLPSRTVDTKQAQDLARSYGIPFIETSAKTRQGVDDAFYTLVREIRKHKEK
Chain of KRas G12C (P01116 1-169 isoform P01116-2 G12C): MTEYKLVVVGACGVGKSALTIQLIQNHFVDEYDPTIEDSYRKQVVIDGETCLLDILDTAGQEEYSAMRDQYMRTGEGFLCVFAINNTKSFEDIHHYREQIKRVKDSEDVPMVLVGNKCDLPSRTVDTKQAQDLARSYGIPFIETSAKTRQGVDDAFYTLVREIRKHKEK

As to `OC12CC(Nc3nc(OCC45CCCN4CCC5)nc4c(F)c(-c5cccc6cccc(F)c56)ncc34)(C1)C2` [Example 90, 3-((8-fluoro-7-(8-fluoronaphthalen-1-yl)-2-((hexahydro-1H-pyrrolizin-7a-yl)methoxy)pyrido[4,3-d]pyrimidin-4-yl)amino)bicyclo[1.1.1]pentan-1-ol], the IC50 on KRas Q61H was found to be 19600 nM; at KRas G12S, 6.48 µM; against KRas G12R, 4.19 µM; against KRas G12V, 3.47 µM; on KRas WT it was 7.24 µM; on KRas G13D it was 8210 nM. Also, the IC50 on KRas G12D came out at 40.2 µM; against KRas G12C, 4.18 µM; on KRas G12A, 5.14 µM.
As to `O=C(O)[C@H]1C[C@H](Nc2nc(OCC34CCCN3CCC4)nc3c(F)c(-c4cccc5cccc(F)c45)ncc23)C1` [Example 91, trans-3-((8-fluoro-7-(8-fluoronaphthalen-1-yl)-2-((tetrahydro-1H-pyrrolizin-7a(5H)-yl)methoxy)pyrido[4,3-d]pyrimidin-4-yl)amino)cyclobutane-1-carboxylic acid], the IC50 came to 31400 nM at KRas Q61H; 17.9 µM against KRas G12S; 2.2 µM against KRas G12R; 12.7 µM on KRas G12V; 14.1 µM against KRas WT; 36600 nM on KRas G13D. Moreover, the IC50 against KRas G12D was no less than 100 µM; at KRas G12C it was 11.3 µM; at KRas G12A, 12.7 µM.
Regarding `Fc1c(-c2cccc3cccc(F)c23)ncc2c(NCc3ncc4cc[nH]c4n3)nc(OCC34CCCN3CCC4)nc12` [Example 92, N-((7H-pyrrolo[2,3-d]pyrimidin-2-yl)methyl)-8-fluoro-7-(8-fluoronaphthalen-1-yl)-2-((hexahydro-1H-pyrrolizin-7a-yl)methoxy)pyrido[4,3-d]pyrimidin-4-amine], the IC50 was found to be 17300 nM at KRas Q61H; 6.87 µM on KRas G12S; 1.98 µM against KRas G12R; 1.72 µM on KRas G12V; 8.8 µM at KRas WT; 8560 nM on KRas G13D. In addition, the IC50 was found to be 20.8 µM against KRas G12D, 3.41 µM at KRas G12C and 6.55 µM against KRas G12A.
Take `Fc1c(-c2cccc3cccc(F)c23)ncc2c(NCc3cn[nH]c3)nc(OCC34CCCN3CCC4)nc12` [Example 93, N-((1H-pyrazol-4-yl)methyl)-8-fluoro-7-(8-fluoronaphthalen-1-yl)-2-((hexahydro-1H-pyrrolizin-7a-yl)methoxy)pyrido[4,3-d]pyrimidin-4-amine]: the IC50 is 21800 nM on KRas Q61H; 10.2 µM at KRas G12S; 3.39 µM against KRas G12R; 2.93 µM at KRas G12V; 14.9 µM against KRas WT; 20400 nM at KRas G13D. Moreover, the results for the IC50 against KRas G12D, against KRas G12C and against KRas G12A were 83.6 µM, 4.05 µM and 7.84 µM, respectively.
Take `Fc1c(-c2cccc3cccc(F)c23)ncc2c(NCc3c[nH]c4ncccc34)nc(OCC34CCCN3CCC4)nc12` [Example 94, N-((1H-pyrrolo[2,3-b]pyridin-3-yl)methyl)-8-fluoro-7-(8-fluoronaphthalen-1-yl)-2-((tetrahydro-1H-pyrrolizin-7a(5H)-yl)methoxy)pyrido[4,3-d]pyrimidin-4-amine]: the IC50 at KRas Q61H is 1850 nM; on KRas G12S, 0.368 µM; against KRas G12R, 0.115 µM; at KRas G12V it was 0.146 µM; against KRas WT, 1.39 µM; at KRas G13D it was 1250 nM. In addition, the IC50 against KRas G12D came to 4.51 µM; against KRas G12C, 0.183 µM; on KRas G12A it was 0.24 µM.
On to `O=S1(=O)CC(Nc2nc(OCC34CCCN3CCC4)nc3c(F)c(-c4cccc5cccc(F)c45)ncc23)C1` [Example 95, 3-((8-fluoro-7-(8-fluoronaphthalen-1-yl)-2-((hexahydro-1H-pyrrolizin-7a-yl)methoxy)pyrido[4,3-d]pyrimidin-4-yl)amino)thietane1,1-dioxide], for which the half-maximal inhibitory concentration (IC50) was 10300 nM on KRas Q61H; 4.12 µM against KRas G12S; 3.06 µM against KRas G12R; 4.99 µM on KRas G12V; 3.99 µM at KRas WT; 7180 nM at KRas G13D. Moreover, the IC50 worked out at 55 µM at KRas G12D, 3.62 µM against KRas G12C and 5 µM against KRas G12A.
For `O=c1ccc(CNc2nc(OCC34CCCN3CCC4)nc3c(F)c(-c4cccc5cccc(F)c45)ncc23)c[nH]1` [Example 96, 5-(((8-fluoro-7-(8-fluoronaphthalen-1-yl)-2-((hexahydro-1H-pyrrolizin-7a-yl)methoxy)pyrido[4,3-d]pyrimidin-4-yl)amino)methyl)pyridin-2 (1H)-one], the IC50 was determined as 22100 nM at KRas Q61H; 3.23 µM at KRas G12S; 3.19 µM at KRas G12R; 1.94 µM on KRas G12V; 5.71 µM against KRas WT; 10700 nM at KRas G13D. The IC50 is 62.9 µM at KRas G12D, 1.95 µM against KRas G12C and 2.5 µM against KRas G12A.
Take `O=C1CC2(CCCN(c3nc(OCC45CCCN4CCC5)nc4c(F)c(-c5cccc6cccc(F)c56)ncc34)C2)N1` (stereo not drawn) [Example 97, 6-(8-fluoro-7-(8-fluoronaphthalen-1-yl)-2-((hexahydro-1H-pyrrolizin-7a-yl)methoxy)pyrido[4,3-d]pyrimidin-4-yl)-1,6-diazaspiro[3.5]nonan-2-one]: the IC50 turned out to be 412 nM at KRas Q61H; 0.272 µM against KRas G12S; 0.348 µM on KRas G12R; 0.189 µM against KRas G12V; 0.333 µM against KRas WT; 297 nM on KRas G13D. For the same compound, the IC50 against KRas G12D was found to be 0.175 µM; at KRas G12C, 0.192 µM; at KRas G12A it was 0.227 µM.
In the case of `O=C1NCC12CCCN(c1nc(OCC34CCCN3CCC4)nc3c(F)c(-c4cccc5cccc(F)c45)ncc13)C2` (stereo not drawn) [Example 98, 6-(8-fluoro-7-(8-fluoronaphthalen-1-yl)-2-((tetrahydro-1H-pyrrolizin-7a(5H)-yl)methoxy)pyrido[4,3-d]pyrimidin-4-yl)-2,6-diazaspiro[3.5]nonan-1-one], the IC50 was 4770 nM at KRas Q61H; 4.01 µM against KRas G12S; 6.42 µM on KRas G12R; 3.01 µM against KRas G12V; 3.36 µM against KRas WT; 3210 nM on KRas G13D. Moreover, the results for the half-maximal inhibitory concentration (IC50) against KRas G12D, against KRas G12C and against KRas G12A were 1.89 µM, 2.84 µM and 2.91 µM, respectively.
Take `Cn1ncc2ccc(Nc3nc(OCC45CCCN4CCC5)nc4c(F)c(-c5cccc6cccc(F)c56)ncc34)cc21` [Example 99, 8-fluoro-7-(8-fluoronaphthalen-1-yl)-2-((hexahydro-1H-pyrrolizin-7a-yl)methoxy)-N-(1-methyl-1H-indazol-6-yl)pyrido[4,3-d]pyrimidin-4-amine]: the IC50 at KRas Q61H is 98500 nM; on KRas G12S, 21.7 µM; against KRas G12R it was 16.7 µM; against KRas G12V, 3.97 µM; on KRas WT, 32.4 µM; at KRas G13D, 59800 nM. In addition, the results for the IC50 on KRas G12D, against KRas G12C and against KRas G12A were no less than 100 µM, 8.33 µM and 13.6 µM, respectively.
With `Fc1c(-c2cccc3cccc(F)c23)ncc2c(Nc3ccc4[nH]ncc4c3)nc(OCC34CCCN3CCC4)nc12` [Example 100, 8-fluoro-7-(8-fluoronaphthalen-1-yl)-2-((hexahydro-1H-pyrrolizin-7a-yl)methoxy)-N-(1H-indazol-5-yl)pyrido[4,3-d]pyrimidin-4-amine], the IC50 at KRas Q61H was 42000 nM; on KRas G12S, 28.8 µM; on KRas G12R it was no less than 100 µM; against KRas G12V it was 17.3 µM; against KRas WT it was 40.3 µM; at KRas G13D it was 49300 nM. In addition, the figures for the IC50 against KRas G12D, on KRas G12C and against KRas G12A were 11.8 µM, 39.9 µM and 50.4 µM, respectively.
As for `Fc1c(-c2cccc3cccc(Cl)c23)ncc2c(N3CC(n4ccnc4)C3)nc(OCC34CCCN3CCC4)nc12` [Example 101, 4-(3-(1H-imidazol-1-yl)azetidin-1-yl)-7-(8-chloronaphthalen-1-yl)-8-fluoro-2-((tetrahydro-1H-pyrrolizin-7a(5H)-yl)methoxy)pyrido[4,3-d]pyrimidine], the IC50 on KRas Q61H was 2580 nM; against KRas G12S, 1.34 µM; against KRas G12R, 0.615 µM; on KRas G12V, 0.966 µM; against KRas WT, 3.03 µM; at KRas G13D, 4230 nM. Besides, the half-maximal inhibitory concentration (IC50) against KRas G12D came out at 15.3 µM; against KRas G12C, 0.679 µM; against KRas G12A it was 0.994 µM.
As for `O=C1CC(CNc2nc(OCC34CCCN3CCC4)nc3c(F)c(-c4cccc5cccc(Cl)c45)ncc23)CN1` (stereo not drawn) [Example 102, 4-(((7-(8-chloronaphthalen-1-yl)-8-fluoro-2-((tetrahydro-1H-pyrrolizin-7a(5H)-yl)methoxy)pyrido[4,3-d]pyrimidin-4-yl)amino)methyl)pyrrolidin-2-one], the IC50 on KRas Q61H was 1180 nM; at KRas G12S it was 0.191 µM; on KRas G12R it was 0.479 µM; at KRas G12V, 0.365 µM; against KRas WT, 1.17 µM; at KRas G13D it was 769 nM. For the same compound, the values for the half-maximal inhibitory concentration (IC50) on KRas G12D, against KRas G12C and against KRas G12A were 2.29 µM, 0.399 µM and 0.634 µM, respectively.
